Laboratory results: publication PMC5376172, “Identification and use of an alkane transporter plug-in for applications in biocatalysis and whole-cell biosensing of alkanes” (Scientific Reports, 2014)

What was measured:
[1] = biological target: T1, alkane hydroxylase complex (AlkB, AlkG, AlkT) (Ectopseudomonas oleovorans, UniProt P12691); assay: whole-cell bio-oxidation, GC-FID of products; format: cell-based; conditions: E. coli DH1 / HB101 whole cells; DCPK inducer
T1 construct: integral membrane AlkB with electron transfer partners, co-expressed from pSTBFG(L) in whole E. coli cells; alkF also on plasmid; with Rubredoxin-2; Rubredoxin-NAD(+) reductase
T1 sequence (P12691 1-401): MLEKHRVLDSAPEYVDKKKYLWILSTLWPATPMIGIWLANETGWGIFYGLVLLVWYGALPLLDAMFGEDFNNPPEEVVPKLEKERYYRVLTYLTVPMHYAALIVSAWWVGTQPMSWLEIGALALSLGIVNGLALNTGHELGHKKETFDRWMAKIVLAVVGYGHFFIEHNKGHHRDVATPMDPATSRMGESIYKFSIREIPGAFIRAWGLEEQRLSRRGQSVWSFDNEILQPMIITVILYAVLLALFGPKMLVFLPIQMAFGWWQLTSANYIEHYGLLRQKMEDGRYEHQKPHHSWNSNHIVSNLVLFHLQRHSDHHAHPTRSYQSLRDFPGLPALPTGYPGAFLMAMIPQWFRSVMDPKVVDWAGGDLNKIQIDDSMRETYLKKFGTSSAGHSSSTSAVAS
T1 sequence (P00272 2-173 partner): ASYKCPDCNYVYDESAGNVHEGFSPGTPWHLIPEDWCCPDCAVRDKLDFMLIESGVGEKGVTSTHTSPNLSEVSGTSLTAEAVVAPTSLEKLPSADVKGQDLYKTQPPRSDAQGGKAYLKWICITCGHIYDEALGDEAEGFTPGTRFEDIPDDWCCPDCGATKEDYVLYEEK

AlkL = biological target: T2, AlkL (Ectopseudomonas oleovorans, UniProt Q00595); assay: whole-cell alkane uptake by GC and coupled AlkB oxidation, with and without alkL; format: cell-based; conditions: transport into E. coli; 15 min incubation for direct uptake; whole cells
T2 construct: full-length, untagged, from pSTBFGL (palkB promoter) in E. coli DH1 / HB101 with AlkBFGT
T2 sequence (Q00595 28-230): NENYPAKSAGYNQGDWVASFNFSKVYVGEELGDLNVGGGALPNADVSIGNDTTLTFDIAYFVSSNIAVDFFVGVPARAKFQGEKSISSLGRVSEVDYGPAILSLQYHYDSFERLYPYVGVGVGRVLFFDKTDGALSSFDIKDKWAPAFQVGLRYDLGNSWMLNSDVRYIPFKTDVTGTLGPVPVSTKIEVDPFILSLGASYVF

SMILES: CCCCCCCC [n-octane]
- whole-cell bio-oxidation, GC-FID of products [1]: Oxidised products of n-octane were detected in all host cells containing either pSTBFG or pSTBFGL

SMILES: CCCCCCCCCCCC [n-dodecane]
- whole-cell alkane uptake by GC and coupled AlkB oxidation, with and without alkL (AlkL): E.coli strains expressing alkL were also tested for a direct measurement of n-dodecane uptake
